This note sets out measurements from ChEMBL document CHEMBL1153151, “Novel P2-P4 macrocyclic inhibitors of HCV NS3/4A protease by P3 succinamide fragment depeptidization strategy” (Bioorg Med Chem Lett, 2010).

Data set [1] can be described thus: Inhibition of HCV NS3/4A protease. The arrangement: species or system Hepacivirus hominis.
Another data set deals with Hepatitis C virus. As to the kind of experiment: Antiviral activity against HCV 1b infected in Huh7 cells assessed as inhibition viral subgenomic replication by luciferase based replicon assay. Format: functional, organism-based, Hepacivirus hominis. As to conditions: genotype 1b, Huh-7.
Data set [2] relates to Rattus norvegicus. As to the kind of experiment: (§1) Cmax in Wistar rat at 4 mg/kg, po. Format: ADME, organism-based. The arrangement: dose 4 mg/kg, route oral. As to conditions: in vivo, BLD = below limit of detection.
A short description of data set [3]: Drug level in Wistar rat liver at 4 mg/kg, po after 4 hrs. Format: ADME, organism-based. The arrangement: dose 4 mg/kg, route oral. As to conditions: read-out: AUC.
Data set [4] can be described thus: as §1. As to conditions: Wistar, in vivo. The arrangement: dose 4 mg/kg, route oral. It is filed as ADME, organism-based.
Data set [5] relates to Rattus norvegicus. In words: AUC (0 to infinity) in Wistar rat plasma at 4 mg/kg, po. As to conditions: in vivo. Details: time infinity, dose 4 mg/kg, route oral. It is filed as ADME, organism-based.

As for `C=C[C@@H]1C[C@]1(NC(=O)[C@@H]1C[C@@H]2CN1C(=O)[C@H](C1CCCCC1)CC(=O)NCCCCCc1cc(OC)cc3nc(-c4ccccc4)cc(c13)O2)C(=O)NS(=O)(=O)C1CC1`, the Ki in data set [1] came out at 0.56 nM. Moreover, the concentration giving a half-maximal response (EC50) in the data set on Hepatitis C virus came out at 7 nM. Also, in the data set with Rattus norvegicus [2], the highest concentration (Cmax) result is on record as “BLD”. Besides, the concentration at 4 h in data set [3] came to 100 nM.

In turn, `C=C[C@@H]1C[C@]1(NC(=O)[C@@H]1C[C@@H]2CN1C(=O)[C@H](C1CCCCC1)CC(=O)N(C(C)C)CCCCCc1cc(OC)cc3nc(-c4ccccc4)cc(c13)O2)C(=O)NS(=O)(=O)C1CC1` showed a Ki in data set [1] of 0.6 nM. Also, in the data set on Hepatitis C virus, the concentration for a half-maximal effect (EC50) amounted to 37 nM. The molecule further registered a Cmax in data set [4] of 380 nM. In the data set with Rattus norvegicus [5], this molecule came in with an AUC of 1.1 µM·h. In addition, in data set [3], the concentration at 4 h amounted to 9300 nM.

Take `C=C[C@@H]1C[C@]1(NC(=O)[C@@H]1C[C@@H]2CN1C(=O)[C@H](C1CCCCC1)CC(=O)NCCCCCc1cccc3c1CN(C3)C(=O)O2)C(=O)NS(=O)(=O)C1CC1`: in data set [1], the inhibition constant (Ki) is 0.76 nM. Besides, the EC50 in the data set on Hepatitis C virus amounted to 12 nM. Moreover, the highest level in data set [4] (Cmax) was 50 nM. In the data set on Rattus norvegicus [5], this molecule yielded an exposure (AUC) of 0.12 µM·h. Besides, the concentration at 4 h in data set [3] was 2200 nM.

`C=C[C@@H]1C[C@]1(NC(=O)[C@@H]1C[C@@H]2CN1C(=O)[C@H](C(C)C)CC(=O)NCCCCCc1cccc3c1CN(C3)C(=O)O2)C(=O)NS(=O)(=O)C1CC1` gave a Ki in data set [1] of 1.4 nM. Also, the EC50 with Hepatitis C virus stood at 100 nM.

In data set [1], `C=C[C@@H]1C[C@]1(NC(=O)[C@@H]1C[C@@H]2CN1C(=O)[C@H](C1CCCCC1)CC(=O)N(C(C)C)CCCCCc1cccc3c1CN(C3)C(=O)O2)C(=O)NS(=O)(=O)C1CC1` yielded an inhibitory constant (Ki) of 0.61 nM. Moreover, the concentration for a half-maximal effect (EC50) in the data set on Hepatitis C virus is 11 nM. This molecule showed a Cmax in data set [4] of 90 nM. In the data set on Rattus norvegicus [5], this molecule displayed an AUC of 0.09 µM·h. In data set [3], the concentration at 4 h amounted to 3000 nM.

For the molecule `C=C[C@@H]1C[C@]1(NC(=O)[C@@H]1C[C@@H]2CN1C(=O)[C@H](C(C)C)CC(=O)N(C(C)C)CCCCCc1cccc3c1CN(C3)C(=O)O2)C(=O)NS(=O)(=O)C1CC1`, the Ki in data set [1] stood at 0.72 nM. For the same molecule, the EC50 in the data set on Hepatitis C virus amounted to 35 nM. Moreover, in data set [4], the highest level (Cmax) was 80 nM. Besides, the exposure (AUC) with Rattus norvegicus [5] came out at 0.22 µM·h. Besides, the concentration at 4 h in data set [3] came out at 2200 nM.

As to `C=C[C@@H]1C[C@]1(NC(=O)[C@@H]1C[C@@H]2CN1C(=O)[C@H](C(C)C)NC(=O)OCCC/C=C\c1cccc3c1CN(C3)C(=O)O2)C(=O)NS(=O)(=O)C1CC1`, the affinity in data set [1] corresponds to a Ki of 0.06 nM. In addition, the 50% effective concentration (EC50) in the data set with Hepatitis C virus turned out to be 12 nM.
